In patent publication US4714765A, “Rhodanine derivatives and process for preparing the same” (Taiho Pharmaceutical Company, Limited, priority 1985, dated 1987):

Target: T1, Rat Lens Aldose Reductase (Rattus norvegicus, UniProt P07943)
T1 construct: The lenses were then homogenized in cold distilled water; from tissue; host or cells: lens of Sprague-Dawley rats, supernatant of homogenate (10,000 rpm, 10 min)
Experiment: Aldose reductase inhibitory activity (Rat Lens Aldose Reductase)
Type: biochemical, rat (Sprague-Dawley)
Details: rat lens homogenate supernatant; glyceraldehyde as substrate; decrease in NADPH at 340 nm; read-out: IC50 (concentration of the test compound at which 50% inhibition of aldose reductase is achieved)
Protocol: Aldose reductase inhibitory activity
Rat Lens Aldose Reductase:
This test was conducted according to the method described in J. Biol. Chem., 240, 877 (1965).
Sprague-Dawley rats weighing 100 to 150 g were suffocated with carbon dioxide and the lenses were carefully removed. The lenses were then homogenized in cold distilled water (0.4 ml/lens) and the homogenate was centrifuged at 10,000 rpm for 10 min. The enzyme, i.e. aldose reductase was spectrophotometrically measured by following the decrease in NADPH at 340 nm with glyceraldehyde as substrate. An IC50 i.e., a concentration of the test compound at which 50% inhibition of aldose reductase is achieved was calculated from estimated dose-response curves.

| IC50 | SMILES |
| --- | --- |
| 640 nM | Cc1cc(CC2SC(=S)N(CC(=O)O)C2=O)on1 (stereo not drawn) [Compound 1g, 5-(3-methyl-5-isoxazolylmethyl)rhodanine-3-acetic acid] |
| 4000 nM | Cc1cc(C=CC=C2SC(=S)NC2=O)on1 [Compound 1a, 5-[3-(3-methyl-5-isoxazolyl)-1,3-propanediene]rhodanine] |
| 130 nM | Cc1cc(C=CC=C2SC(=S)N(CC(=O)O)C2=O)on1 [Compound 1b] |
